# Test results taken from PubChem BioAssay (NCI).
#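 Tested at 5 concentrations; 48 h exposure; 96-well plates; endpoints linearly interpolated, else capped at highest concentration. GI50 marks 50% less growth. TGI is the concentration that stops growth completely.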
# Assays:
# Experiment in all cases: inhibition of tumour cell growth, NCI panel, 48 h
# SK-MEL-2 melanoma = system: SK-MEL-2 melanoma
# TK-10 renal = system: TK-10 renal
# M14 melanoma = system: M14 melanoma
# LOX IMVI melanoma = system: LOX IMVI melanoma
# MOLT-4 leukemia = system: MOLT-4 leukemia
# ACHN renal = system: ACHN renal
# MCF7 breast = system: MCF7 breast
# OVCAR-8 ovarian = system: OVCAR-8 ovarian
# SNB-19 CNS = system: SNB-19 CNS
# SK-MEL-5 melanoma = system: SK-MEL-5 melanoma
# HCT-116 colon = system: HCT-116 colon
# RXF 393 renal = system: RXF 393 renal
# SK-MEL-28 melanoma = system: SK-MEL-28 melanoma
# HOP-62 NSCLC = system: HOP-62 NSCLC
# MDA-MB-435 = system: MDA-MB-435
# DU-145 prostate = system: DU-145 prostate
# CCRF-CEM leukemia = system: CCRF-CEM leukemia
# COLO 205 colon = system: COLO 205 colon
# UO-31 renal = system: UO-31 renal
# NCI-H23 lung = system: NCI-H23 lung
# NCI-H460 lung = system: NCI-H460 lung
# A549 NSCLC = system: A549 NSCLC
# 786-0 renal = system: 786-0 renal
# HT29 colon = system: HT29 colon
# HCC-2998 colon = system: HCC-2998 colon
# UACC-62 melanoma = system: UACC-62 melanoma
# U251 CNS = system: U251 CNS
# OVCAR-3 ovarian = system: OVCAR-3 ovarian
# NCI/ADR-RES ovarian = system: NCI/ADR-RES ovarian
# SF-295 CNS = system: SF-295 CNS
# SR leukemia = system: SR leukemia
# OVCAR-5 ovarian = system: OVCAR-5 ovarian
# SN12C renal = system: SN12C renal
# RPMI-8226 leukemia = system: RPMI-8226 leukemia
# NCI-H522 lung = system: NCI-H522 lung
# CAKI-1 renal = system: CAKI-1 renal
# SF-539 CNS = system: SF-539 CNS
# BT-549 breast = system: BT-549 breast
# PC-3 prostate = system: PC-3 prostate
# IGROV1 ovarian = system: IGROV1 ovarian
# K-562 leukemia = system: K-562 leukemia
# A498 renal = system: A498 renal
# HCT-15 colon = system: HCT-15 colon
# SK-OV-3 ovarian = system: SK-OV-3 ovarian
# SF-268 CNS = system: SF-268 CNS
# KM12 colon = system: KM12 colon
# EKVX NSCLC = system: EKVX NSCLC
# HL-60(TB) leukemia = system: HL-60(TB) leukemia
# UACC-257 melanoma = system: UACC-257 melanoma
# SW-620 colon = system: SW-620 colon
# HOP-92 NSCLC = system: HOP-92 NSCLC
# MDA-MB-231 breast = system: MDA-MB-231 breast
# T-47D breast = system: T-47D breast
# HS 578T breast = system: HS 578T breast
compound,measurement,setting,value
CN(C)CCC(=O)NCc1c2nc3ccccc3nc2n2ccccc12,GI50,SK-MEL-2 melanoma,48.1 µM
same,TGI,SK-MEL-2 melanoma,> 100 µM
same,GI50,TK-10 renal,16 µM
same,TGI,TK-10 renal,47.6 µM
same,GI50,M14 melanoma,26.3 µM
same,TGI,M14 melanoma,69.5 µM
same,GI50,LOX IMVI melanoma,21 µM
same,TGI,LOX IMVI melanoma,40.4 µM
same,GI50,MOLT-4 leukemia,38.8 µM
same,TGI,MOLT-4 leukemia,> 100 µM
same,GI50,ACHN renal,> 100 µM
same,TGI,ACHN renal,> 100 µM
same,GI50,MCF7 breast,17.4 µM
same,TGI,MCF7 breast,> 100 µM
same,GI50,OVCAR-8 ovarian,84.8 µM
same,TGI,OVCAR-8 ovarian,> 100 µM
same,GI50,SNB-19 CNS,52.9 µM
same,TGI,SNB-19 CNS,> 100 µM
same,GI50,SK-MEL-5 melanoma,16.8 µM
same,TGI,SK-MEL-5 melanoma,52.8 µM
same,GI50,HCT-116 colon,21 µM
same,TGI,HCT-116 colon,59.7 µM
same,GI50,RXF 393 renal,54.8 µM
same,TGI,RXF 393 renal,> 100 µM
same,GI50,SK-MEL-28 melanoma,83.9 µM
same,TGI,SK-MEL-28 melanoma,> 100 µM
same,GI50,HOP-62 NSCLC,24 µM
same,TGI,HOP-62 NSCLC,> 100 µM
same,GI50,MDA-MB-435,67.8 µM
same,TGI,MDA-MB-435,> 100 µM
same,GI50,DU-145 prostate,12.3 µM
same,TGI,DU-145 prostate,> 100 µM
same,GI50,CCRF-CEM leukemia,25.7 µM
same,TGI,CCRF-CEM leukemia,78.8 µM
same,GI50,COLO 205 colon,73.3 µM
same,TGI,COLO 205 colon,> 100 µM
same,GI50,UO-31 renal,20.7 µM
same,TGI,UO-31 renal,> 100 µM
same,GI50,NCI-H23 lung,65.6 µM
same,TGI,NCI-H23 lung,> 100 µM
same,GI50,NCI-H460 lung,42.5 µM
same,TGI,NCI-H460 lung,> 100 µM
same,GI50,A549 NSCLC,> 100 µM
same,TGI,A549 NSCLC,> 100 µM
same,GI50,786-0 renal,19 µM
same,TGI,786-0 renal,45.9 µM
same,GI50,HT29 colon,35.9 µM
same,TGI,HT29 colon,> 100 µM
same,GI50,HCC-2998 colon,33.8 µM
same,TGI,HCC-2998 colon,> 100 µM
same,GI50,UACC-62 melanoma,> 100 µM
same,TGI,UACC-62 melanoma,> 100 µM
same,GI50,U251 CNS,> 100 µM
same,TGI,U251 CNS,> 100 µM
same,GI50,OVCAR-3 ovarian,> 100 µM
same,TGI,OVCAR-3 ovarian,> 100 µM
same,GI50,NCI/ADR-RES ovarian,47.2 µM
same,TGI,NCI/ADR-RES ovarian,> 100 µM
same,GI50,SF-295 CNS,61.1 µM
same,TGI,SF-295 CNS,> 100 µM
same,GI50,SR leukemia,16.9 µM
same,TGI,SR leukemia,41.8 µM
same,GI50,OVCAR-5 ovarian,> 100 µM
same,TGI,OVCAR-5 ovarian,> 100 µM
same,GI50,SN12C renal,68 µM
same,TGI,SN12C renal,> 100 µM
same,GI50,RPMI-8226 leukemia,18.5 µM
same,TGI,RPMI-8226 leukemia,> 100 µM
same,GI50,NCI-H522 lung,66.1 µM
same,TGI,NCI-H522 lung,> 100 µM
same,GI50,CAKI-1 renal,60.6 µM
same,TGI,CAKI-1 renal,> 100 µM
same,GI50,SF-539 CNS,21.9 µM
same,TGI,SF-539 CNS,43.2 µM
same,GI50,BT-549 breast,23.3 µM
same,TGI,BT-549 breast,60.8 µM
same,GI50,PC-3 prostate,33.5 µM
same,TGI,PC-3 prostate,> 100 µM
same,GI50,IGROV1 ovarian,0.338 µM
same,TGI,IGROV1 ovarian,28.4 µM
same,GI50,K-562 leukemia,> 100 µM
same,TGI,K-562 leukemia,> 100 µM
same,GI50,A498 renal,22 µM
same,TGI,A498 renal,88.1 µM
same,GI50,HCT-15 colon,48.4 µM
same,TGI,HCT-15 colon,> 100 µM
same,GI50,SK-OV-3 ovarian,> 100 µM
same,TGI,SK-OV-3 ovarian,> 100 µM
same,GI50,SF-268 CNS,41.5 µM
same,TGI,SF-268 CNS,> 100 µM
same,GI50,KM12 colon,26 µM
same,TGI,KM12 colon,> 100 µM
same,GI50,EKVX NSCLC,43.1 µM
same,TGI,EKVX NSCLC,> 100 µM
same,GI50,HL-60(TB) leukemia,58.1 µM
same,TGI,HL-60(TB) leukemia,> 100 µM
same,GI50,UACC-257 melanoma,73.1 µM
same,TGI,UACC-257 melanoma,> 100 µM
same,GI50,SW-620 colon,58.7 µM
same,TGI,SW-620 colon,> 100 µM
same,GI50,HOP-92 NSCLC,34.6 µM
same,TGI,HOP-92 NSCLC,> 100 µM
same,GI50,MDA-MB-231 breast,24.7 µM
same,TGI,MDA-MB-231 breast,> 100 µM
same,GI50,T-47D breast,> 100 µM
same,TGI,T-47D breast,> 100 µM
same,GI50,HS 578T breast,> 100 µM
same,TGI,HS 578T breast,> 100 µM
